# In PubChem BioAssay (NCI):
#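 Grown in 96-well plates, cells were treated for 48 hours with each compound at five concentrations. Insufficient inhibition: endpoint recorded as highest concentration tested. TGI: total growth inhibition.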
# What was measured:
# Test in all cases: growth of human tumour cells (NCI), 48 h
# 786-0 renal = tested on: 786-0 renal
# A498 renal = tested on: A498 renal
# A549 NSCLC = tested on: A549 NSCLC
# ACHN renal = tested on: ACHN renal
# CAKI-1 renal = tested on: CAKI-1 renal
# CCRF-CEM leukemia = tested on: CCRF-CEM leukemia
# COLO 205 colon = tested on: COLO 205 colon
# DLD-1 colon = tested on: DLD-1 colon
# DMS 114 small cell lung = tested on: DMS 114 small cell lung
# DMS 273 small cell lung = tested on: DMS 273 small cell lung
# EKVX NSCLC = tested on: EKVX NSCLC
# HCC-2998 colon = tested on: HCC-2998 colon
# HCT-116 colon = tested on: HCT-116 colon
# HCT-15 colon = tested on: HCT-15 colon
# HL-60(TB) leukemia = tested on: HL-60(TB) leukemia
# HOP-18 NSCLC = tested on: HOP-18 NSCLC
# HOP-62 NSCLC = tested on: HOP-62 NSCLC
# HOP-92 NSCLC = tested on: HOP-92 NSCLC
# HT29 colon = tested on: HT29 colon
# IGROV1 ovarian = tested on: IGROV1 ovarian
# K-562 leukemia = tested on: K-562 leukemia
# KM12 colon = tested on: KM12 colon
# KM20L2 colon = tested on: KM20L2 colon
# LOX IMVI melanoma = tested on: LOX IMVI melanoma
# LXFL 529 NSCLC = tested on: LXFL 529 NSCLC
# M14 melanoma = tested on: M14 melanoma
# M19-MEL melanoma = tested on: M19-MEL melanoma
# MALME-3M melanoma = tested on: MALME-3M melanoma
# MOLT-4 leukemia = tested on: MOLT-4 leukemia
# NCI-H226 lung = tested on: NCI-H226 lung
# NCI-H23 lung = tested on: NCI-H23 lung
# NCI-H460 lung = tested on: NCI-H460 lung
# NCI-H522 lung = tested on: NCI-H522 lung
# OVCAR-3 ovarian = tested on: OVCAR-3 ovarian
# OVCAR-4 ovarian = tested on: OVCAR-4 ovarian
# OVCAR-5 ovarian = tested on: OVCAR-5 ovarian
# OVCAR-8 ovarian = tested on: OVCAR-8 ovarian
# RPMI-8226 leukemia = tested on: RPMI-8226 leukemia
# RXF 393 renal = tested on: RXF 393 renal
# SF-268 CNS = tested on: SF-268 CNS
# SF-295 CNS = tested on: SF-295 CNS
# SF-539 CNS = tested on: SF-539 CNS
# SK-MEL-2 melanoma = tested on: SK-MEL-2 melanoma
# SK-MEL-28 melanoma = tested on: SK-MEL-28 melanoma
# SK-MEL-5 melanoma = tested on: SK-MEL-5 melanoma
# SK-OV-3 ovarian = tested on: SK-OV-3 ovarian
# SN12C renal = tested on: SN12C renal
# SNB-19 CNS = tested on: SNB-19 CNS
# SNB-75 CNS = tested on: SNB-75 CNS
# SNB-78 CNS = tested on: SNB-78 CNS
# SR leukemia = tested on: SR leukemia
# SW-620 colon = tested on: SW-620 colon
# TK-10 renal = tested on: TK-10 renal
# U251 CNS = tested on: U251 CNS
# UACC-257 melanoma = tested on: UACC-257 melanoma
# UACC-62 melanoma = tested on: UACC-62 melanoma
# UO-31 renal = tested on: UO-31 renal
# XF 498 CNS = tested on: XF 498 CNS
# RXF-631 renal = tested on: RXF-631 renal
smiles,measurement,setting,value
N#CC(=Nc1ccccc1N(C(=O)c1ccccc1)C(=O)c1ccccc1)c1ccccc1,TGI,786-0 renal,> 100 µM
same,TGI,A498 renal,> 100 µM
same,TGI,A549 NSCLC,> 48.8 µM
same,TGI,ACHN renal,> 100 µM
same,TGI,CAKI-1 renal,> 100 µM
same,TGI,CCRF-CEM leukemia,> 31.2 µM
same,TGI,COLO 205 colon,> 64.6 µM
same,TGI,DLD-1 colon,> 100 µM
same,TGI,DMS 114 small cell lung,> 48.8 µM
same,TGI,DMS 273 small cell lung,> 100 µM
same,TGI,EKVX NSCLC,> 100 µM
same,TGI,HCC-2998 colon,> 100 µM
same,TGI,HCT-116 colon,> 44.8 µM
same,TGI,HCT-15 colon,> 90.3 µM
same,TGI,HL-60(TB) leukemia,> 41.1 µM
same,TGI,HOP-18 NSCLC,> 100 µM
same,TGI,HOP-62 NSCLC,> 100 µM
same,TGI,HOP-92 NSCLC,> 93.3 µM
same,TGI,HT29 colon,> 100 µM
same,TGI,IGROV1 ovarian,> 100 µM
same,TGI,K-562 leukemia,> 60.9 µM
same,TGI,KM12 colon,> 70.9 µM
same,TGI,KM20L2 colon,> 100 µM
same,TGI,LOX IMVI melanoma,> 100 µM
same,TGI,LXFL 529 NSCLC,> 100 µM
same,TGI,M14 melanoma,> 100 µM
same,TGI,M19-MEL melanoma,> 100 µM
same,TGI,MALME-3M melanoma,> 100 µM
same,TGI,MOLT-4 leukemia,> 100 µM
same,TGI,NCI-H226 lung,> 100 µM
same,TGI,NCI-H23 lung,> 100 µM
same,TGI,NCI-H460 lung,> 100 µM
same,TGI,NCI-H522 lung,> 100 µM
same,TGI,OVCAR-3 ovarian,> 100 µM
same,TGI,OVCAR-4 ovarian,> 76.2 µM
same,TGI,OVCAR-5 ovarian,> 100 µM
same,TGI,OVCAR-8 ovarian,> 100 µM
same,TGI,RPMI-8226 leukemia,> 81.4 µM
same,TGI,RXF 393 renal,> 39.3 µM
same,TGI,SF-268 CNS,> 100 µM
same,TGI,SF-295 CNS,> 100 µM
same,TGI,SF-539 CNS,> 100 µM
same,TGI,SK-MEL-2 melanoma,> 100 µM
same,TGI,SK-MEL-28 melanoma,> 100 µM
same,TGI,SK-MEL-5 melanoma,> 100 µM
same,TGI,SK-OV-3 ovarian,> 100 µM
same,TGI,SN12C renal,> 100 µM
same,TGI,SNB-19 CNS,> 54.9 µM
same,TGI,SNB-75 CNS,> 100 µM
same,TGI,SNB-78 CNS,> 100 µM
same,TGI,SR leukemia,24.2 µM
same,TGI,SW-620 colon,> 62.2 µM
same,TGI,TK-10 renal,> 100 µM
same,TGI,U251 CNS,> 100 µM
same,TGI,UACC-257 melanoma,> 100 µM
same,TGI,UACC-62 melanoma,> 100 µM
same,TGI,UO-31 renal,> 100 µM
same,TGI,XF 498 CNS,> 100 µM
CN(C(=O)c1ccc([N+](=O)[O-])cc1)c1ccccc1,TGI,786-0 renal,> 100 µM
same,TGI,A498 renal,> 100 µM
same,TGI,A549 NSCLC,> 100 µM
same,TGI,ACHN renal,> 100 µM
same,TGI,CAKI-1 renal,> 100 µM
same,TGI,CCRF-CEM leukemia,> 100 µM
same,TGI,COLO 205 colon,> 100 µM
same,TGI,DLD-1 colon,> 100 µM
same,TGI,DMS 114 small cell lung,> 10 µM
same,TGI,DMS 273 small cell lung,> 100 µM
same,TGI,EKVX NSCLC,> 100 µM
same,TGI,HCC-2998 colon,> 100 µM
same,TGI,HCT-116 colon,> 100 µM
same,TGI,HCT-15 colon,> 100 µM
same,TGI,HOP-18 NSCLC,> 100 µM
same,TGI,HOP-62 NSCLC,> 100 µM
same,TGI,HOP-92 NSCLC,> 100 µM
same,TGI,HT29 colon,> 100 µM
same,TGI,IGROV1 ovarian,> 100 µM
same,TGI,K-562 leukemia,> 10 µM
same,TGI,KM12 colon,> 100 µM
same,TGI,KM20L2 colon,> 100 µM
same,TGI,LOX IMVI melanoma,> 100 µM
same,TGI,LXFL 529 NSCLC,> 100 µM
same,TGI,M14 melanoma,> 100 µM
same,TGI,M19-MEL melanoma,> 100 µM
same,TGI,MALME-3M melanoma,> 100 µM
same,TGI,MOLT-4 leukemia,> 100 µM
same,TGI,NCI-H226 lung,> 100 µM
same,TGI,NCI-H23 lung,> 100 µM
same,TGI,NCI-H460 lung,> 100 µM
same,TGI,NCI-H522 lung,> 100 µM
same,TGI,OVCAR-3 ovarian,> 100 µM
same,TGI,OVCAR-4 ovarian,> 100 µM
same,TGI,OVCAR-5 ovarian,> 100 µM
same,TGI,OVCAR-8 ovarian,> 100 µM
same,TGI,RPMI-8226 leukemia,> 100 µM
same,TGI,RXF 393 renal,> 100 µM
same,TGI,RXF-631 renal,> 100 µM
same,TGI,SF-268 CNS,> 100 µM
same,TGI,SF-295 CNS,> 100 µM
same,TGI,SF-539 CNS,> 100 µM
same,TGI,SK-MEL-28 melanoma,> 100 µM
same,TGI,SK-OV-3 ovarian,> 100 µM
same,TGI,SN12C renal,> 100 µM
same,TGI,SNB-19 CNS,> 100 µM
same,TGI,SNB-75 CNS,> 100 µM
same,TGI,SNB-78 CNS,> 100 µM
same,TGI,SW-620 colon,> 100 µM
same,TGI,U251 CNS,> 100 µM
same,TGI,UACC-257 melanoma,> 100 µM
same,TGI,UACC-62 melanoma,> 10 µM
same,TGI,UO-31 renal,> 100 µM
same,TGI,XF 498 CNS,> 100 µM
